Laboratory results reported in patent US11241501B2, “Anticancer prodrug for overcoming drug resistance” (Korea University Research and Business Foundation, priority 2018, dated 2022).

How the values were obtained:
[1] = tested on: MCF7/Dox xenograft tumors; assay: Xenograft tumor study; assay type: in vivo; conditions: mice, C1 15 mg/kg/d, Dox 2 mg/Kg/d + DCA 50 mg/Kg/d, once every four days
Procedure: (§1) Data represent the mean±SD. *p<0.05.
(§2) To assess tumor target specificity and the organ distribution of C1 in vivo and ex vivo, MCF7 and MCF7/Dox cells were injected subcutaneously into mice. When tumor growth reached a detectable size, the mice were treated with C1 (15 mg/kg/d), doxorubicin (2 mg/Kg/d)+DCA (50 mg/Kg/d), or vehicle (DMSO) by i.v. injection once every 4 days for 30 days. After 15 days of treatment, the animals were euthanized via CO2 asphyxiation. The xenograft tumors were excised and photographed. In vivo fluorescence images of the mice were recorded and quantified using a Maestro2 instrument (excitation and emission wavelengths: 500 and 650 nm, respectively). The fluorescence images and auto-fluorescence were then deconvoluted using the software provided with the instrument (Maestro software ver.2.4, CRi, Woburn, Mass., USA) using the multiexcitation spectral analysis function.
(§3) Five-week-old immunodeficient nude mice (nu/nu) mice (Orient Bio, Inc.) were maintained in pressurized ventilated cages under conditions of repeated controlled illumination (12 h dark; 12 h light) with ad libitum access to sterilized water and food (Cat no: 1314Fort, ALTROMIN company, Germany). MCF-7/Dox cells (1×10^7) in […] PBS were injected subcutaneously into each nude mouse. […] Tumor growth was monitored periodically, and the tumor volume (V) was calculated by using V=½× length×(width)^2. […]

[2] = tested on: MCF7 xenograft tumors; assay: Xenograft tumor study; assay type: in vivo; conditions: mice, C1 15 mg/kg/d, Dox 2 mg/Kg/d + DCA 50 mg/Kg/d, once every four days
Procedure: as §1, §2, §3

[3] = tested on: MCF7/Dox cells; assay: Colony formation assay; assay type: cell-based, human; conditions: 10 days
Procedure: (§4) Fluorescence intensities were measured with SpectraMAX 13. Data represent means±SD. **p<0.01. […] Data represent means±SD. **[…]. […] Data represent the mean±SD (n=3 experimental replicates). *p<0.05, **p<0.01. […] MCF7/Dox cells were treated with C1 or C3 as indicated, and the cytosolic (C) and mitochondrial (M) fractions were subjected to immunoblot assay. COX-IV and tubulin were used as markers for the mitochondria and cytosol fractions, respectively.
(§5) Cells were seeded in 24 well plates at 2×10^5 cells per well and were allowed to adhere for at least 24 h, growth medium was replaced with medium containing C1 or its analogues at the indicated concentrations and times, and cell viability was assessed via the WST-1 assay (Roche Diagnostics, Laval, QC, Canada). For the colony formation assay, cells were seeded in 6-well plates. After 24 h, cells were maintained in the presence of each probe or vehicle dimethyl sulfoxide (DMSO) for 10 days. Colonies were fixed with methanol for 10 min and stained with 0.05% crystal violet in 20% ethanol.

[4] = tested on: MCF7 and MCF7/Dox tumors; assay: In vivo and ex vivo fluorescent imaging; conditions: mice bearing MCF7 and MCF7/Dox tumors
[5] = Stability on incubation in PBS; assay type: physicochemical; conditions: PBS pH 7.4, 37° C., 24 hr
Procedure: To gain further insight into the preliminary stability and activation of conjugates containing DCA, Dox, and a TPP cation targeting entity, both the target conjugate C1 and the control system C3 (an analog of C1 lacking the chloromethyl groups present in DCA; cf. FIG. 1) were prepared. These two conjugates were obtained in excellent yield, as shown in Scheme S1. […] This release was accompanied by a strong emission band at 560 nm corresponding to free Dox (FIG. 2A and FIG. 2B). Further support for the release of free Dox under these conditions came from time-dependent fluorescence experiments, HPLC, and liquid chromatography-mass spectrometry (FIG. 2B and FIG. 2C, and FIG. 7). […] To test the reaction of C1 with various other bioanalytes, the fluorescence response in the presence of various amino acids, enzymes, and biomolecules was recorded.

[6] = tested on: HepG2 cells; assay: WST cell viability assay; assay type: cell-based, human
Procedure: (§6) HepG2 cells treated with each compound (5 μM, 24 hr) were co-stained with the mitochondrial marker MitoTracker (green). Boxed regions show co-localization of the test compounds and probe within the mitochondria. […] Experiments were carried out in triplicate and the data shown represent means±SD. **p<0.01. […] HepG2 cells were incubated with BNPP (100 μM) for 2 hr prior to C1 treatment. **p<0.01. […] Cleaved caspase-3 and PARP-1 levels were examined to assess apoptosis induction. C, cleaved.
as §5

[7] = WST cell viability assay; assay type: cell-based, human; conditions: human; HepG2 cells, WST assay; read-out: IC50 (cytotoxicity)
Procedure: as §6, §5

[8] = tested on: MCF7/Dox cells; assay: Cell death assay, Annexin V flow cytometry; assay type: cell-based, human; conditions: 5 μM
Procedure: MCF-7/Dox cells (8×10^5 cells) were seeded in 60 mm dishes and cultured for 24 h. The cells were treated with 5 μM compound C1, C3, DCA and/or doxorubicin for 48 h. After washing and centrifugation, the harvested cells were stained with the Annexin V/PI Apoptosis Detection kit (BD Biosciences, USA) for 1 min at room temperature. The apoptotic cells were then quantified on a FACSCalibur™ flow cytometer and analyzed using the CELLQUEST™ software (BD Biosciences).

[9] = tested on: cancer cells (A549 and HepG2), normal cells (NHDF and IMR90); assay: Cellular uptake of compounds in normal and cancer cells; assay type: cell-based, human; conditions: 5 μM, 6 h, A549, HepG2 vs NHDF
Procedure: Cells were treated with 5 μM of each compound for 6 h. Fluorescence intensities were determined using SpectraMAX 13;
(§7) To analyze the cellular fluorescence levels upon compound treatment, cells were seeded in plates 1 day before treatment with the compounds. Cells were then treated with each compound for the indicated dose or time course. After the experiment, cells were washed with ice-cold PBS, trypsinized, and centrifuged. The cell pellet was re-suspended in 300 μL of PBS and then analyzed using a multiplate reader (SpectraMAX I3x). The results were normalized according to the number of cells.

[10] = tested on: MCF7 and MCF7/Dox cells; assay: Intracellular accumulation, fluorescence assay; assay type: cell-based, human; conditions: up to 12 hr after treatment
Procedure: as §4
Mito-tracker (green) was utilized to show the mitochondria;
as §7

[11] = tested on: MCF7 cells; assay: Colony formation assay; assay type: cell-based, human; conditions: 10 days
Procedure: as §5

SMILES: COc1cccc2c1C(=O)c1c(O)c3c(c(O)c1C2=O)C[C@@](O)(C(=O)CO)C[C@@H]3OC1C[C@H](NC(=O)OC(Cc2cn(CCCCCC[P+](c3ccccc3)(c3ccccc3)c3ccccc3)nn2)c2ccc(NC(=O)C(Cl)Cl)cc2)[C@H](O)[C@H](C)O1.[Br-] (stereo partly drawn) [C1]
- reduction in the tumor volume [1]: ~74%
- reduction in the tumor volume [2]: approximately 78%
- colony-forming ability [3]: strong inhibitory effect
- tumor specificity of Dox accumulation (fluorescence imaging of mice and dissected organs) [4]: highly tumor-specific accumulation of Dox
- decomposition upon incubation in PBS [5]: no decomposition was observed
- effect of BNPP pretreatment on C1-driven decrease in cell viability ([6]; HepG2, BNPP 100 μM 2 hr before treatment): strongly attenuated
- cell death in cell-survival assays ([6]; compared with C3-C6): greater cell death in a dose-dependent manner
- IC50 [7]: 22.1 ± 0.325 µM
- apoptosis by Annexin V flow cytometry [8]: promotes both early and late apoptosis
- tumor cell selectivity of cellular uptake [9]: taken up specifically by cancer cells
- intracellular accumulation in MCF7/Dox versus MCF7 [10]: comparable level in both MCF7 and MCF7/Dox cells
- colony-forming ability [11]: strong inhibitory effect
